# Molecular target: T1, human orexin type 2 receptor (hOX2R) (Homo sapiens, UniProt O43614)
# T1 construct: expressed in transfected cells
# T1 sequence (O43614 1-444): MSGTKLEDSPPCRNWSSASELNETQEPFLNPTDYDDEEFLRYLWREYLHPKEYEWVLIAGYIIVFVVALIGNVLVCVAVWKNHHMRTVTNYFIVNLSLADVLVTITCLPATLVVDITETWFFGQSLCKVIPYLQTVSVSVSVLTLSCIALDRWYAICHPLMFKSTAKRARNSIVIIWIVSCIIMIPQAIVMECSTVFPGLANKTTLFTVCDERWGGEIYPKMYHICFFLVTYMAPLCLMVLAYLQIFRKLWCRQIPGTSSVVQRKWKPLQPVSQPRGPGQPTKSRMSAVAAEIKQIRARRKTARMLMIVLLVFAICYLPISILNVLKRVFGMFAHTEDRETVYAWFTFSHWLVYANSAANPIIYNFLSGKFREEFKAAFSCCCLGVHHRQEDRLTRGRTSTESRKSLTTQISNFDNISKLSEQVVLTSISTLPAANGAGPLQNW
# Test: Measurement of orexin type 2 receptor agonist activity (FLIPR calcium fluorescence)
# Format: cell-based
# Conditions: CHO cells expressing hOX2R, FLIPR calcium fluorescence; for EC50: read-out: hOx2 pEC50 (converted); for Emax: CHO, read-out: hOx2 Emax (%)
# Method: The biological activity of the compounds of the present disclosure may be determined in cells stably expressing either orexin type 2 or orexin type 1 receptor. […] The agonist activity of a compound of the present disclosure may be determined by fluorescence value.
# Stable cell line generation.
# Measurement of orexin type 2 receptor agonist activity. […] As used herein, E. indicates the value at 10 μM concentration when orexin A is converted to a full agonist (maximum value of agonist activity. 100%).
SMILES,EC50,Emax
"O=C(NCC(F)(F)F)N1CC2(CC2)[C@H](NS(=O)(=O)C(F)F)[C@@H]1Cc1cccc(-c2ccccc2)c1F [Compound 200, (6S,7S)-7-((difluoromethyl)sulfonamido)-6-((2-fluoro-[1,1′-biphenyl]-3-yl)methyl)-N-(2,2,2-trifluoroethyl)-5-azaspiro[2.4]heptane-5-carboxamide]",1 to 10 nM,90 to 100%
[2H]c1ccc(-c2cc(F)cc(C[C@H]3[C@@H](NS(C)(=O)=O)C4(CC4)CN3C(=O)[C@H]3CCO3)c2F)cc1 [Compound 359],10 to 100 nM,90 to 100%
"CN(CCF)C(=O)N1CC2(CC2)[C@H](NS(C)(=O)=O)[C@@H]1Cc1cccc(-c2ccccc2)c1F [Compound 82, (6S,7S)-6-((2-fluoro-[1,1′-biphenyl]-3-yl)methyl)-N-(2-fluoroethyl)-N-methyl-7-(methylsulfonamido)-5-azaspiro[2.4]heptane-5-carboxamide]",1 to 10 nM,90 to 100%
"O=C(N1CC(F)C1)N1CC2(CC2)C(NS(=O)(=O)CF)C1Cc1cccc(-c2ccccc2)c1F (racemic) [Compound 105, 1-fluoro-N-(6-((2-fluoro-[1,1′-biphenyl]-3-yl)methyl)-5-(3-fluoroazetidine-1-carbonyl)-5-azaspiro[2.4]heptan-7-yl)methanesulfonamide]",1 to 10 nM,90 to 100%
N#CCS(=O)(=O)N[C@@H]1[C@H](Cc2cccc(-c3ccccc3)c2)N(C(=O)[C@H]2CCO2)CC12CC2 [Compound 73],10 to 100 nM,90 to 100%
"O=C([C@H]1CCO1)N1CC2(CC2)[C@H](NS(=O)(=O)C(F)F)[C@@H]1Cc1cc(F)cc(-c2cc(F)cc(F)c2)c1F [Compound 220, 1,1-difluoro-N-((6S,7S)-5-((R)-oxetane-2-carbonyl)-6-((2,3′,5,5′-tetrafluoro-[1,1′-biphenyl]-3-yl)methyl)-5-azaspiro[2.4]heptan-7-yl)methanesulfonamide]",1 to 10 nM,90 to 100%
O=C([C@@H](O)C1CC1)N1CC2(CC2)[C@H](NS(=O)(=O)C(F)F)[C@@H]1Cc1cc(F)cc(-c2ccccc2)c1F [Compound 385],0.0794 to 1 nM,90 to 100%
"O=C(NC[C@@H]1CCO1)N1CC2(CC2)[C@H](NS(=O)(=O)C(F)F)[C@@H]1Cc1cccc(-c2ccccc2)c1F [Compound 368, (6S,7S)-7-((difluoromethyl)sulfonamido)-6-((2-fluoro-[1,1′-biphenyl]-3-yl)methyl)-N-(((S)-oxetan-2-yl)methyl)-5-azaspiro[2.4]heptane-5-carboxamide]",1 to 10 nM,90 to 100%
"C[C@H](F)CNC(=O)N1CC2(CC2)[C@H](NS(C)(=O)=O)[C@@H]1Cc1cccc(-c2ccccc2)c1F [Compound 84, (6S,7S)-6-((2-fluoro-[1,1′-biphenyl]-3-yl)methyl)-N-((S)-2-fluoropropyl)-7-(methylsulfonamido)-5-azaspiro[2.4]heptane-5-carboxamide]",0.0794 to 1 nM,90 to 100%
"CCCNC(=O)N1CC2(CC2)[C@H](NS(C)(=O)=O)[C@@H]1Cc1cccc(-c2ccccc2)c1F [Compound 111, (6S,7S)-6-((2-fluoro-[1,1′-biphenyl]-3-yl)methyl)-7-(methylsulfonamido)-N-propyl-5- .azaspiro[2.4]heptane-5-carboxamide]",1 to 10 nM,90 to 100%
"N#CC1(C(=O)N2CC3(CC3)[C@H](NS(=O)(=O)CF)[C@@H]2Cc2cc(F)cc(-c3ccccc3)c2F)CCC1 [Compound 413, N-((6S,7S)-5-(1-cyanocyclobutane-1-carbonyl)-6-((2,5-difluoro-[1,1′-biphenyl]-3-yl)methyl)-5-azaspiro[2.4]heptan-7-yl)-1-fluoromethanesulfonamide]",0.0794 to 1 nM,90 to 100%
"O=C(NCC(F)(F)F)N1CC2(CC2)[C@H](NS(=O)(=O)C(F)F)[C@@H]1Cc1cc(F)cc(-c2ccccc2)c1F [Compound 383, (6S,7S)-6-((2,5-difluoro-[1,1′-biphenyl]-3-yl)methyl)-7-((difluoromethyl)sulfonamido)-N-(2,2,2-trifluoroethyl)-5-azaspiro[2.4]heptane-5-carboxamide]",1 to 10 nM,90 to 100%
"CS(=O)(=O)N[C@H]1[C@@H](Cc2cccc(-c3ccccc3)c2F)N(C(=O)[C@@H]2CCO2)CC12CC2 [Compound 19, N-((6R,7R)-6-((2-fluoro-[1,1′-biphenyl]-3-yl)methyl)-5-((S)-oxetane-2-carbonyl)-5-azaspiro[2.4]heptan-7-yl)methanesulfonamide]",> 1000 nM,90 to 100%
CC[C@@H](O)C(=O)N1CC2(CC2)[C@H](NS(C)(=O)=O)[C@@H]1Cc1cccc(-c2ccccc2)c1 (racemic) [Compound 300],10 to 100 nM,90 to 100%
"CS(=O)(=O)NC1C(Cc2cccc(-c3ccccc3)c2F)N(C(=O)[C@H]2C[C@@H](F)C2)CC12CC2 (mixture of isomers) [Compound 91, N-(6-((2-fluoro-[1,1′-biphenyl]-3-yl)methyl)-5-((1s,3s)-3-fluorocyclobutane-1-carbonyl)-5-azaspiro[2.4]heptan-7-yl)methanesulfonamide]",10 to 100 nM,90 to 100%
"O=C([C@H](O)CF)N1CC2(CC2)[C@H](NS(=O)(=O)CF)[C@@H]1Cc1cccc(-c2cc(F)cc(F)c2)c1F [Compound 391, 1-fluoro-N-((6S,7S)-5-((S)-3-fluoro-2-hydroxypropanoyl)-6-((2,3′,5′-trifluoro-[1,1′-biphenyl]-3-yl)methyl)-5-azaspiro[2.4]heptan-7-yl)methanesulfonamide]",0.0794 to 1 nM,90 to 100%
"C[C@H](O)CN(C)C(=O)N1CC2(CC2)[C@H](NS(C)(=O)=O)[C@@H]1Cc1cccc(-c2ccccc2)c1F [Compound 323, (6S,7S)-6-((2-fluoro-[1,1′-biphenyl]-3-yl)methyl)-N-((S)-2-hydroxypropyl)-N-methyl-7-(methylsulfonamido)-5-azaspiro[2.4]heptane-5-carboxamide]",1 to 10 nM,90 to 100%
"CS(=O)(=O)N[C@@H]1[C@H](Cc2cccc(-c3ccccc3)c2F)N(C(=O)NC[C@@H]2CCO2)CC12CC2 [Compound 333, (6S,7S)-6-((2-fluoro-[1,1′-biphenyl]-3-yl)methyl)-7-(methylsulfonamido)-N-(((S)-oxetan-2-yl)methyl)-5-azaspiro[2.4]heptane-5-carboxamide]",1 to 10 nM,90 to 100%
"COCCNC(=O)N1CC2(CC2)[C@H](NS(C)(=O)=O)[C@@H]1Cc1cccc(-c2ccccc2)c1F (racemic) [Compound 306, 6-((2-fluoro-[1,1′-biphenyl]-3-yl)methyl)-N-(2-methoxyethyl)-7-(methylsulfonamido)-5-azaspiro[2.4]heptane-5-carboxamide]",10 to 100 nM,90 to 100%
"CCS(=O)(=O)N[C@@H]1[C@H](Cc2cccc(-c3cccc(F)c3)c2F)N(C(=O)C(C)(C)O)CC12CC2 [Compound 184, N-((6S,7S)-6-((2,3′-difluoro-[1,1′-biphenyl]-3-yl)methyl)-5-(2-hydroxy-2-methylpropanoyl)-5-azaspiro[2.4]heptan-7-yl)ethanesulfonamide]",1 to 10 nM,90 to 100%
"CS(=O)(=O)N[C@@H]1[C@H](Cc2cccc(-c3ccccc3)c2F)N(C(=O)N2CC(F)(F)C2)CC12CC2 [Compound 87, N-((6S,7S)-5-(3,3-difluoroazetidine-1-carbonyl)-6-((2-fluoro-[1,1′-biphenyl]-3-yl)methyl)-5-azaspiro[2.4]heptan-7-yl)methanesulfonamide]",10 to 100 nM,90 to 100%
"CS(=O)(=O)NC1C(Cc2cccc(-c3ccccc3)c2F)N(C(=O)C2(O)CCC2)CC12CC2 (racemic) [Compound 50, N-(6-((2-fluoro-[1,1′-biphenyl]-3-yl)methyl)-5-(1-hydroxycyclobutane-1-carbonyl)-5-azaspiro[2.4]heptan-7-yl)methanesulfonamide]",0.0794 to 1 nM,90 to 100%
"CN(CC1CC1)C(=O)N1CC2(CC2)[C@H](NS(C)(=O)=O)[C@@H]1Cc1cccc(-c2ccccc2)c1F [Compound 332, (6S,7S)-N-(cyclopropylmethyl)-6-((2-fluoro-[1,1′-biphenyl]-3-yl)methyl)-N-methyl-7-(methylsulfonamido)-5-azaspiro[2.4]heptane-5-carboxamide]",1 to 10 nM,90 to 100%
"CC(C)C(=O)N1CC2(CC2)[C@@H](NS(C)(=O)=O)[C@H]1Cc1cccc(-c2ccccc2)c1 [Compound 16, N-((6R,7R)-6-([1,1′-biphenyl]-3-ylmethyl)-5-isobutyryl-5-azaspiro[2.4]heptan-7-yl)methanesulfonamide]",100 to 1000 nM,50 to 60%
"O=C(NCC1(F)CC1)N1CC2(CC2)[C@H](NS(=O)(=O)CF)[C@@H]1Cc1cccc(-c2ccccc2)c1F [Compound 157, (6S,7S)-6-((2-fluoro-[1,1′-biphenyl]-3-yl)methyl)-N-((1-fluorocyclopropyl)methyl)-7-((fluoromethyl)sulfonamido)-5-azaspiro[2.4]heptane-5-carboxamide]",0.0794 to 1 nM,90 to 100%

# From patent US12503475B2 (Centessa Pharmaceuticals (UK) Limited, priority 2020, dated 2025)
